The numbers were not newly measured in patent US10123974B2, “Sustained release formulation of a non-steroidal anti-inflammatory drug” (PACIRA PHARMACEUTICALS, INC., priority 2010, dated 2018), which cites them from elsewhere.

The conditions of the data set: chronic 100 mg/day systemic dosing.

On to `O=C(O)Cc1ccccc1Nc1c(Cl)cccc1Cl` [diclofenac], for which the synovial fluid levels is reported as no more than 200 ng/mL.
